The values below come from PMC11595612, “Phytochemical Investigation and Biological Activities of Desmodium heterocarpon Extract as Anti-Tyrosinase: Isolation of Natural Compounds, In Vitro and In Silico Study” (Life, 2024).

Broadly, the pIC50 is the IC50 on a negative log10 scale, so that one unit is a factor of ten. In general, MBC refers to the lowest tested concentration that kills the bacteria rather than only halting them. A low value points to greater bactericidal potency. A word on the MIC: it is the smallest concentration in the dilution series that meets the test's criterion for growth inhibition.

The test system of test [1] is Candida albicans (TISTR 5779). The test can be described thus: MIC/MFC by micro-dilution method. The following applies: for MFC / MIC: Candida albicans, TISTR5779.
For test [2], the target named is tyrosinase. The following applies: previous study, read-out: IC50, anti-tyrosinase activity, cited from earlier work.
In test [3] the test system is Staphylococcus aureus (ATTC 25923). The test can be described thus: MIC/MBC by micro-dilution method. A general note: Broth dilution looks for growth in wells or tubes with falling amounts of substance.
The test system of test [4] is Staphylococcus epidermidis (TISTR 517). The test is described as follows: MIC/MBC by micro-dilution method. To be noted: TISTR517.
For test [5], the system named is Propionibacterium acnes (DMST 14916). The test is described as follows: MIC/MBC by micro-dilution method. To be noted: Cutibacterium acnes.
The test system of test [6] is Escherichia coli ATCC35218. The test is described as follows: MIC/MBC by micro-dilution method.
For test [7], the system named is Pseudomonas aeruginosa ATCC10145. The test can be described thus: MIC/MBC by micro-dilution method.
For a further test, the system named is Microsporum gypseum. The test can be described thus: MIC/MFC by micro-dilution method. To be noted: for MFC / MIC: Nannizzia gypsea.
A further test has as its system Trichophyton rubrum. The test is described as follows: MIC/MFC by micro-dilution method. The following applies: for MFC / MIC: Trichophyton rubrum.
Test [8] deals with Trichophyton mentagrophytes. The test can be described thus: MIC/MFC by micro-dilution method. To be noted: for MFC / MIC: Trichophyton mentagrophytes.
Test [9] deals with tyrosinase. The following applies: cited from earlier work.
Test [10] concerns P. aeruginosa, Klebsiella pneumoniae, E. coli, Salmonella typhimurium, and S. aureus. The following applies: at a concentration of 315 ± 0.04 µg/mL; cited from earlier work.
Test [11] deals with A. fumigatus, A. flavus, A. niger, and tested Chrysosporium species. Also on record: method as in earlier work. The following applies: at 30 mg/mL; isolated from fruit extract of Flacourtia inermis Roxb; cited from earlier work.
Test [12] relates to Candida albicans, Microsporum gypseum, Trichophyton rubrum, and T. mentagrophytes. The test can be described thus: MIC/MFC by micro-dilution, summary over yeast and filamentous fungi (abstract). The format is cell-based. To be noted: C. albicans, M. gypseum.
Test [13] relates to Rhizopus stolonifer and Botrytis. Also on record: method as in doi:10.1016/S0925-5214(96)00031-2. The following applies: at a dosage of 5 mM; cited from earlier work.
The subject of test [14] is B. aureus, L. monocytogenes, and E. coli. Also on record: method as in doi:10.17221/132/2010-CJFS. The following applies: cited from earlier work.
Test [15] has as its system MRSA, S. epidermidis, Propionibacterium acnes, Escherichia coli, and Pseudomonas aeruginosa. The test can be described thus: MIC/MBC by micro-dilution, summary over bacteria (abstract).

pIC50: −log10 of the molar value. In brackets after ≈: the same amount, converted by molar mass. Like-named read-outs stand apart in the source and are kept apart here.

For the compound `C[C@@H]1[C@H](O)[C@@H](C)/C=C/C=C/C=C/C=C/C=C/C=C/C=C/[C@H](O[C@@H]2O[C@H](C)[C@@H](O)[C@H](N)[C@@H]2O)C[C@@H]2O[C@](O)(C[C@@H](O)C[C@@H](O)[C@H](O)CC[C@@H](O)C[C@@H](O)CC(=O)O[C@H]1C)C[C@H](O)[C@H]2C(=O)O` [amphotericin B, reference compound], the “Antibiotic * (positive control value; MIC/MFC not specified)” value in test [1] (C. albicans) is reported as 0.5.
In the case of `O=c1c(-c2ccc(O)cc2)coc2cc(O)cc(O)c12` [compound 1, genistein], the pIC50 at tyrosinase [2] (ref 40) was 3.44; on tyrosinase [2] (ref 41) it was 3.09. The MBC in test [3] (Staphylococcus aureus), in [4], in test [5], in test [6] and in [7] was more than 100 µg/mL throughout. Further, the minimal inhibitory concentration (MIC) in [3] (Staphylococcus aureus), in test [4], in test [5], in [6], in [7] and in test [1] was more than 100 µg/mL in each case. For the same compound, the MIC (against Microsporum gypseum; with Trichophyton rubrum; in test [8]) was more than 100 µg/mL each time. Further, the MFC (in test [1]; against Microsporum gypseum; in the test on Trichophyton rubrum; in test [8]) was more than 100 µg/mL in each case.
On to `CCCCCCCCCCCCCCCC(=O)O` [compound 2, hexadecanoic acid], for which the MBC in test [3] (Staphylococcus aureus), in test [4], in [5], in test [6] and in test [7] was more than 100 µg/mL each time. Further, the MIC in test [3] (Staphylococcus aureus), in test [4], in test [5], in test [6], in [7] and in [1] was more than 100 µg/mL throughout. The MIC (against Microsporum gypseum; in the test with Trichophyton rubrum; in test [8]) was more than 100 µg/mL in each case. Besides, the MFC (in [1]; against Microsporum gypseum; against Trichophyton rubrum; in test [8]) was more than 100 µg/mL throughout.
With `O=C(O)c1ccccc1O` [compound 3, salicylic acid], the “type of inhibition (Lineweaver–Burk plots)” value with tyrosinase [9] was “non-competitive inhibitor”.
Turning to `CC[C@H](CC[C@@H](C)[C@H]1CC[C@H]2[C@@H]3CC=C4C[C@@H](O[C@@H]5O[C@H](CO)[C@@H](O)[C@H](O)[C@H]5O)CC[C@]4(C)[C@H]3CC[C@]12C)C(C)C` [compound 4, β-sitosterol-D-glucoside], the MBC in [3] (Staphylococcus aureus), in [4], in [5], in test [6] and in test [7] was more than 100 µg/mL each time. The MIC in test [3] (Staphylococcus aureus), in [4], in test [5], in test [6], in test [7] and in test [1] was more than 100 µg/mL each time. The MIC (in the test with Microsporum gypseum; against Trichophyton rubrum; in test [8]) was more than 100 µg/mL each time. In addition, the MFC (in test [1]; against Microsporum gypseum; in the test with Trichophyton rubrum; in test [8]) was more than 100 µg/mL throughout.
Consider `O=C(O)c1cccc(O)c1O` [compound 5, 2,3-dihydroxybenzoic acid], for which the growth of bacteria result in test [10] was “inhibited the growth”. In [11], the antifungal action entry is on record as “preventing the growth”. For the same compound, the minimum bactericidal concentration (MBC) in test [3] (Staphylococcus aureus) is 15 µg/mL (≈ 97.3 µM); in test [4], 15 µg/mL (≈ 97.3 µM); in test [5] it was 20 µg/mL (≈ 130 µM); in test [6], 15 µg/mL (≈ 97.3 µM); in test [7], 20 µg/mL (≈ 130 µM). Further, the MIC in [3] (Staphylococcus aureus) worked out at 15 µg/mL (≈ 97.3 µM); in test [4], 15 µg/mL (≈ 97.3 µM); in test [5], 15 µg/mL (≈ 97.3 µM); in test [6], 15 µg/mL (≈ 97.3 µM); in test [7], 15 µg/mL (≈ 97.3 µM); in test [1], 10 µg/mL (≈ 64.9 µM). The MIC (against Microsporum gypseum; in the test on Trichophyton rubrum; in test [8]) was 10 µg/mL (≈ 64.9 µM) in each case. The MFC was determined as 15 µg/mL (≈ 97.3 µM) in test [1], 10 µg/mL (≈ 64.9 µM) against Microsporum gypseum, 10 µg/mL (≈ 64.9 µM) in the test on Trichophyton rubrum and 10 µg/mL (≈ 64.9 µM) in test [8].
Turning to `O=C(O)c1cc(O)ccc1O` [compound 6, 2,5-dihydroxybenzoic acid], the MFC (in test [12]; in test [1]; against Microsporum gypseum; in the test with Trichophyton rubrum; in test [8]) was 15 µg/mL (≈ 97.3 µM) in each case. Further, the MIC in [12] was 15 µg/mL (≈ 97.3 µM); in test [14], 2500 µM (≈ 385 µg/mL); in test [3] (S. aureus), 5 µg/mL (≈ 32.4 µM); in test [3] (Staphylococcus aureus), 5 µg/mL (≈ 32.4 µM); in test [4] it was 15 µg/mL (≈ 97.3 µM); in test [5], 30 µg/mL (≈ 195 µM). Besides, the MIC in [6] amounted to 20 µg/mL (≈ 130 µM); in test [7] it was 20 µg/mL (≈ 130 µM); in test [1] it was 15 µg/mL (≈ 97.3 µM); in the test on Microsporum gypseum, 15 µg/mL (≈ 97.3 µM); in the test with Trichophyton rubrum, 15 µg/mL (≈ 97.3 µM); in test [8], 15 µg/mL (≈ 97.3 µM). Also, in test [15], the MIC was 15 to 30 µg/mL (≈ 97.3 to 195 µM). Moreover, in [13], the spore germination entry was “inhibited”. Further, the MBC in [3] (S. aureus) is 5 µg/mL (≈ 32.4 µM); in [3] (Staphylococcus aureus), 5 µg/mL (≈ 32.4 µM); in test [4], 15 µg/mL (≈ 97.3 µM); in test [5] it was 40 µg/mL (≈ 260 µM); in [6] it was 35 µg/mL (≈ 227 µM); in [7], 35 µg/mL (≈ 227 µM). The compound further came in with an MBC in [15] of 15 to 40 µg/mL (≈ 97.3 to 260 µM).
Take `CC(=O)N1CCN(c2ccc(OCC3COC(Cn4ccnc4)(c4ccc(Cl)cc4Cl)O3)cc2)CC1` (centres unmarked) [ketoconazole, reference compound]: the “Antibiotic * (positive control value; MIC/MFC not specified)” value (with Microsporum gypseum (M. gypseum); in the test on Trichophyton rubrum (T. rubrum); in [8] (T. mentagrophytes)) was 0.25 throughout.
